Data: PubChem BioAssay (NCI)
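Assay format: 96-well plates, 48-hour exposure. At the GI50, growth is halved. The concentration for full growth arrest is given as TGI.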

Experiments:
Assay in all cases: DTP human tumour cell line panel, 48 h
RXF 393 renal = test system: RXF 393 renal
OVCAR-8 ovarian = test system: OVCAR-8 ovarian
786-0 renal = test system: 786-0 renal
KM12 colon = test system: KM12 colon
SK-MEL-28 melanoma = test system: SK-MEL-28 melanoma
ACHN renal = test system: ACHN renal
HOP-62 NSCLC = test system: HOP-62 NSCLC
OVCAR-5 ovarian = test system: OVCAR-5 ovarian
NCI-H522 lung = test system: NCI-H522 lung
PC-3 prostate = test system: PC-3 prostate
HCT-15 colon = test system: HCT-15 colon
SF-539 CNS = test system: SF-539 CNS
HT29 colon = test system: HT29 colon
HCT-116 colon = test system: HCT-116 colon
LOX IMVI melanoma = test system: LOX IMVI melanoma
COLO 205 colon = test system: COLO 205 colon
SK-MEL-5 melanoma = test system: SK-MEL-5 melanoma
MOLT-4 leukemia = test system: MOLT-4 leukemia
SF-295 CNS = test system: SF-295 CNS
MDA-MB-231 breast = test system: MDA-MB-231 breast
T-47D breast = test system: T-47D breast
UO-31 renal = test system: UO-31 renal
CCRF-CEM leukemia = test system: CCRF-CEM leukemia
NCI/ADR-RES ovarian = test system: NCI/ADR-RES ovarian
NCI-H23 lung = test system: NCI-H23 lung
SF-268 CNS = test system: SF-268 CNS
HL-60(TB) leukemia = test system: HL-60(TB) leukemia
OVCAR-4 ovarian = test system: OVCAR-4 ovarian
HOP-92 NSCLC = test system: HOP-92 NSCLC
K-562 leukemia = test system: K-562 leukemia
MCF7 breast = test system: MCF7 breast
U251 CNS = test system: U251 CNS
M14 melanoma = test system: M14 melanoma
A549 NSCLC = test system: A549 NSCLC
TK-10 renal = test system: TK-10 renal
HS 578T breast = test system: HS 578T breast
NCI-H460 lung = test system: NCI-H460 lung
SNB-75 CNS = test system: SNB-75 CNS
CAKI-1 renal = test system: CAKI-1 renal
SW-620 colon = test system: SW-620 colon
EKVX NSCLC = test system: EKVX NSCLC
NCI-H226 lung = test system: NCI-H226 lung
HCC-2998 colon = test system: HCC-2998 colon
MALME-3M melanoma = test system: MALME-3M melanoma
A498 renal = test system: A498 renal
SK-OV-3 ovarian = test system: SK-OV-3 ovarian
OVCAR-3 ovarian = test system: OVCAR-3 ovarian
UACC-62 melanoma = test system: UACC-62 melanoma
SN12C renal = test system: SN12C renal
SNB-19 CNS = test system: SNB-19 CNS
RPMI-8226 leukemia = test system: RPMI-8226 leukemia
BT-549 breast = test system: BT-549 breast
MDA-MB-435 = test system: MDA-MB-435
IGROV1 ovarian = test system: IGROV1 ovarian
UACC-257 melanoma = test system: UACC-257 melanoma
DU-145 prostate = test system: DU-145 prostate

How did the GI50 (RXF 393 renal) turn out when `C[C@@H](Oc1cc(-n2cnc3ccc(OCC4CCN(C)CC4)cc32)sc1C(N)=O)c1ccccc1C(F)(F)F` was run?
Its GI50 is 87.9 nM.

What about the TGI (RXF 393 renal) of the same compound?
The TGI was 3.32 µM.

What about the GI50 (OVCAR-8 ovarian) of the same compound?
The GI50 was 89.6 nM.

What about the TGI (OVCAR-8 ovarian) of the same compound?
Its TGI is 2850 nM.

And the GI50 (786-0 renal)?
The GI50 was 523 nM.

What about the TGI (786-0 renal) of the same compound?
The TGI was 4.24 µM.

What about the GI50 (KM12 colon) of the same compound?
The GI50 was 67.1 nM.

And the TGI (KM12 colon)?
Its TGI is 991 nM.

And the GI50 (SK-MEL-28 melanoma)?
Its GI50 is 637 nM.

What about the TGI (SK-MEL-28 melanoma) of the same compound?
Its TGI is 4.58 µM.

What about the GI50 (ACHN renal) of the same compound?
Its GI50 is 801 nM.

What about the TGI (ACHN renal) of the same compound?
The TGI was 4.52 µM.

And the GI50 (HOP-62 NSCLC)?
Its GI50 is 99.4 nM.

What about the TGI (HOP-62 NSCLC) of the same compound?
Its TGI is 3.11 µM.

And the GI50 (OVCAR-5 ovarian)?
Its GI50 is 114 nM.

What about the TGI (OVCAR-5 ovarian) of the same compound?
The TGI was 3.81 µM.

What about the GI50 (NCI-H522 lung) of the same compound?
Its GI50 is 47.2 nM.

What about the TGI (NCI-H522 lung) of the same compound?
Its TGI is 236 nM.

What about the GI50 (PC-3 prostate) of the same compound?
Its GI50 is 114 nM.

And the TGI (PC-3 prostate)?
Its TGI is 4.08 µM.

What about the GI50 (HCT-15 colon) of the same compound?
Its GI50 is 126 nM.

What about the TGI (HCT-15 colon) of the same compound?
Its TGI is 3.2 µM.

And the GI50 (SF-539 CNS)?
The GI50 was 144 nM.

What about the TGI (SF-539 CNS) of the same compound?
Its TGI is 1080 nM.

And the GI50 (HT29 colon)?
The GI50 was 72.1 nM.

What about the TGI (HT29 colon) of the same compound?
Its TGI is 2630 nM.

What about the GI50 (HCT-116 colon) of the same compound?
Its GI50 is 99.7 nM.

What about the TGI (HCT-116 colon) of the same compound?
Its TGI is 3.18 µM.

What about the GI50 (LOX IMVI melanoma) of the same compound?
Its GI50 is 106 nM.

And the TGI (LOX IMVI melanoma)?
The TGI was 3.27 µM.

And the GI50 (COLO 205 colon)?
The GI50 was 75.2 nM.

What about the TGI (COLO 205 colon) of the same compound?
Its TGI is 401 nM.

And the GI50 (SK-MEL-5 melanoma)?
The GI50 was 217 nM.

And the TGI (SK-MEL-5 melanoma)?
The TGI was 2950 nM.

What about the GI50 (MOLT-4 leukemia) of the same compound?
The GI50 was 91.6 nM.

And the TGI (MOLT-4 leukemia)?
The TGI was 2980 nM.

And the GI50 (SF-295 CNS)?
The GI50 was 138 nM.

And the TGI (SF-295 CNS)?
Its TGI is 3.39 µM.

What about the GI50 (MDA-MB-231 breast) of the same compound?
The GI50 was 144 nM.

And the TGI (MDA-MB-231 breast)?
Its TGI is 1980 nM.

And the GI50 (T-47D breast)?
Its GI50 is 2690 nM.

And the TGI (T-47D breast)?
Its TGI is 6.03 µM.

And the GI50 (UO-31 renal)?
The GI50 was 948 nM.

And the TGI (UO-31 renal)?
Its TGI is 4.33 µM.

What about the GI50 (CCRF-CEM leukemia) of the same compound?
The GI50 was 67.3 nM.

And the TGI (CCRF-CEM leukemia)?
Its TGI is 3.3 µM.

And the GI50 (NCI/ADR-RES ovarian)?
The GI50 was 477 nM.

And the TGI (NCI/ADR-RES ovarian)?
The TGI was 3.87 µM.

What about the GI50 (NCI-H23 lung) of the same compound?
Its GI50 is 118 nM.

And the TGI (NCI-H23 lung)?
The TGI was 3.37 µM.

What about the GI50 (SF-268 CNS) of the same compound?
Its GI50 is 140 nM.

And the TGI (SF-268 CNS)?
Its TGI is 3.86 µM.

And the GI50 (HL-60(TB) leukemia)?
The GI50 was 70.8 nM.

And the TGI (HL-60(TB) leukemia)?
The TGI was 1080 nM.

And the GI50 (OVCAR-4 ovarian)?
Its GI50 is 699 nM.

And the TGI (OVCAR-4 ovarian)?
Its TGI is 4.69 µM.

What about the GI50 (HOP-92 NSCLC) of the same compound?
The GI50 was 307 nM.

What about the TGI (HOP-92 NSCLC) of the same compound?
The TGI was 3.43 µM.

And the GI50 (K-562 leukemia)?
Its GI50 is 83.2 nM.

What about the TGI (K-562 leukemia) of the same compound?
Its TGI is 3.31 µM.

What about the GI50 (MCF7 breast) of the same compound?
The GI50 was 65.1 nM.

And the TGI (MCF7 breast)?
Its TGI is 3.18 µM.

What about the GI50 (U251 CNS) of the same compound?
The GI50 was 110 nM.

What about the TGI (U251 CNS) of the same compound?
The TGI was 3.4 µM.

And the GI50 (M14 melanoma)?
The GI50 was 87.9 nM.

And the TGI (M14 melanoma)?
The TGI was 1250 nM.

What about the GI50 (A549 NSCLC) of the same compound?
The GI50 was 131 nM.

And the TGI (A549 NSCLC)?
The TGI was 2700 nM.

What about the GI50 (TK-10 renal) of the same compound?
The GI50 was 427 nM.

And the TGI (TK-10 renal)?
Its TGI is 3.98 µM.

And the GI50 (HS 578T breast)?
The GI50 was 631 nM.

What about the TGI (HS 578T breast) of the same compound?
Its TGI is 5.02 µM.

What about the GI50 (NCI-H460 lung) of the same compound?
Its GI50 is 87.2 nM.

What about the TGI (NCI-H460 lung) of the same compound?
Its TGI is 3.1 µM.

What about the GI50 (SNB-75 CNS) of the same compound?
Its GI50 is 85.3 nM.

And the TGI (SNB-75 CNS)?
The TGI was 1420 nM.

And the GI50 (CAKI-1 renal)?
Its GI50 is 1910 nM.

What about the TGI (CAKI-1 renal) of the same compound?
Its TGI is 5.23 µM.

What about the GI50 (SW-620 colon) of the same compound?
The GI50 was 64.8 nM.

What about the TGI (SW-620 colon) of the same compound?
Its TGI is 3.5 µM.

And the GI50 (EKVX NSCLC)?
Its GI50 is 653 nM.

What about the TGI (EKVX NSCLC) of the same compound?
The TGI was 5.04 µM.

What about the GI50 (NCI-H226 lung) of the same compound?
Its GI50 is 1550 nM.

And the TGI (NCI-H226 lung)?
The TGI was 6.16 µM.

What about the GI50 (HCC-2998 colon) of the same compound?
The GI50 was 85.9 nM.

What about the TGI (HCC-2998 colon) of the same compound?
The TGI was 2980 nM.

What about the GI50 (MALME-3M melanoma) of the same compound?
Its GI50 is 2790 nM.

What about the TGI (MALME-3M melanoma) of the same compound?
Its TGI is 6.97 µM.

What about the GI50 (A498 renal) of the same compound?
Its GI50 is 295 nM.

What about the TGI (A498 renal) of the same compound?
Its TGI is 1560 nM.

What about the GI50 (SK-OV-3 ovarian) of the same compound?
Its GI50 is 143 nM.

What about the TGI (SK-OV-3 ovarian) of the same compound?
The TGI was 2250 nM.

What about the GI50 (OVCAR-3 ovarian) of the same compound?
Its GI50 is 80.1 nM.

And the TGI (OVCAR-3 ovarian)?
Its TGI is 2860 nM.

And the GI50 (UACC-62 melanoma)?
Its GI50 is 96.4 nM.

And the TGI (UACC-62 melanoma)?
Its TGI is 3.02 µM.

What about the GI50 (SN12C renal) of the same compound?
The GI50 was 319 nM.

What about the TGI (SN12C renal) of the same compound?
Its TGI is 4.28 µM.

And the GI50 (SNB-19 CNS)?
The GI50 was 163 nM.

And the TGI (SNB-19 CNS)?
The TGI was 4.56 µM.

What about the GI50 (RPMI-8226 leukemia) of the same compound?
Its GI50 is 133 nM.

What about the TGI (RPMI-8226 leukemia) of the same compound?
Its TGI is 5.89 µM.

And the GI50 (BT-549 breast)?
The GI50 was 1370 nM.

What about the TGI (BT-549 breast) of the same compound?
Its TGI is 4.75 µM.

And the GI50 (MDA-MB-435)?
The GI50 was 39 nM.

And the TGI (MDA-MB-435)?
Its TGI is 95.9 nM.

What about the GI50 (IGROV1 ovarian) of the same compound?
Its GI50 is 217 nM.

What about the TGI (IGROV1 ovarian) of the same compound?
The TGI was 4.41 µM.

And the GI50 (UACC-257 melanoma)?
Its GI50 is 179 nM.

And the TGI (UACC-257 melanoma)?
The TGI was 4.51 µM.

And the GI50 (DU-145 prostate)?
Its GI50 is 64.3 nM.

And the TGI (DU-145 prostate)?
Its TGI is 246 nM.
